Legend:
Assay in all cases: MIC by agar dilution method
Format in all cases: cell-based
S. aureus Wein 11 = system: S. aureus Wein 11
From the text: (§1) The minimum inhibitory concentration (MIC) against different test strains, determined by agar dilution method in the known manner, are given in Table 2.

Ent. faecalis 4045H = system: Ent. faecalis 4045H
From the text: as §1

S. aureus E 712 = system: S. aureus E 712
From the text: as §1

S. aureus Chantot 31153 = system: S. aureus Chantot 31153
From the text: as §1

Ent. equinus (V^R,T^R) = settings: Vancomycin resistant, Teicoplanin resistant
From the text: as §1

[1] = system: Ent. faecium P-1 (V^R,T^R); settings: Vancomycin resistant, Teicoplanin resistant
From the text: as §1

[2] = system: Ent. faecium R-2 (V^R,T^R); settings: Vancomycin resistant, Teicoplanin resistant
From the text: as §1

[3] = system: Enterococcus faecalis ATCC 29212
From the text: as §1

[4] = system: Ent. faecium R-1 (V^R,T^R); settings: Vancomycin resistant, Teicoplanin resistant
From the text: as §1

[5] = system: Staphylococcus aureus 209P
From the text: as §1

S. aureus 20240 = system: S. aureus 20240
From the text: as §1

S. epi. 32965 = system: S. epi. 32965
From the text: as §1

S. epi 6026 = system: S. epi 6026
From the text: as §1

S. epi. 109 = system: S. epi. 109
From the text: as §1

S. aureus Brussels 4115 = system: S. aureus Brussels 4115
From the text: as §1

[6] = system: Ent. faecium P-2 (V^R,T^R); settings: Vancomycin resistant, Teicoplanin resistant
From the text: as §1

S. epi. 823 (T^R) = settings: Teicoplanin resistant
From the text: as §1

S. epi. 825 (T^S) = settings: Teicoplanin sensitive
From the text: as §1

S. haemo. 712 (T^S) = settings: Teicoplanin sensitive
From the text: as §1

S. aureus E 710 = system: S. aureus E 710
From the text: as §1

S. aureus E-88 = system: S. aureus E-88
From the text: as §1

S. aureus 3066 = S. aureus 3066 (resistant to methicillin)
From the text: as §1

Ent. faecium D-65 = system: Ent. faecium D-65
From the text: as §1

Ent. faecalis D-7F = system: Ent. faecalis D-7F
From the text: as §1

S. haemo. 712 (T^R) = settings: Teicoplanin resistant
From the text: as §1

Escherichia coli 2231 = system: Escherichia coli 2231
From the text: as §1

S. aureus 20424 = system: S. aureus 20424
From the text: as §1

S. aureus Brussels 810 = system: S. aureus Brussels 810
From the text: as §1

Ent. hirae 55 = system: Ent. hirae 55
From the text: as §1

[7] = system: Ent faecalis durans 4931 H
From the text: as §1

S. aureus Wein 12 = system: S. aureus Wein 12
From the text: as §1

S. epi. 8 Schah = system: S. epi. 8 Schah
From the text: as §1

S. epi. 5747 IIW = system: S. epi. 5747 IIW
From the text: as §1

methylsulfomycin I was tested, and the MIC (S. aureus Wein 11) was 0.125 µg/mL, the MIC (Ent. faecalis 4045H) was 0.125 µg/mL and the MIC (S. aureus E 712) was 0.125 µg/mL. For the same substance, the MIC (S. aureus Chantot 31153) was 0.125 µg/mL, the MIC (Ent. equinus (V^R,T^R)) was 0.125 µg/mL and the MIC [1] was 0.125 µg/mL. It also gave an MIC [2] of 0.125 µg/mL, an MIC [3] of 0.125 µg/mL and an MIC [4] of 0.125 µg/mL. It also gave an MIC [5] of 0.06 µg/mL, an MIC (S. aureus 20240) of 0.125 µg/mL and an MIC (S. epi. 32965) of 0.125 µg/mL. The MIC (S. epi 6026) was 0.125 µg/mL, the MIC (S. epi. 109) was 0.125 µg/mL and the MIC (S. aureus Brussels 4115) was 0.125 µg/mL. The MIC [6] was 0.125 µg/mL, the MIC (S. epi. 823 (T^R)) was 0.125 µg/mL and the MIC (S. epi. 825 (T^S)) was 0.125 µg/mL. The MIC (S. haemo. 712 (T^S)) was 0.125 µg/mL, the MIC (S. aureus E 710) was 0.125 µg/mL and the MIC (S. aureus E-88) was 0.125 µg/mL. The MIC (S. aureus 3066) was 0.125 µg/mL, the MIC (Ent. faecium D-65) was 0.125 µg/mL and the MIC (Ent. faecalis D-7F) was 0.125 µg/mL. The MIC (S. haemo. 712 (T^R)) was 0.125 µg/mL, the MIC (Escherichia coli 2231) was > 100 µg/mL and the MIC (S. aureus 20424) was 0.125 µg/mL. For the same substance, the MIC (S. aureus Brussels 810) was 0.125 µg/mL, the MIC (Ent. hirae 55) was 0.125 µg/mL and the MIC [7] was 0.125 µg/mL. For the same substance, the MIC (S. aureus Wein 12) was 0.125 µg/mL, the MIC (S. epi. 8 Schah) was 0.125 µg/mL and the MIC (S. epi. 5747 IIW) was 0.125 µg/mL.

Reference: EP0818464B1, “Methylsulfomycin l, a process for its production and its use” (HOECHST AKTIENGESELLSCHAFT, priority 1996, dated 1998)
